# Assay results taken from ChEMBL document CHEMBL3102730, “Synthesis and evaluation of isoleucine derived angiotensin II AT(2) receptor ligands” (Bioorg Med Chem Lett, 2014).
# Calls of active or inactive are those of the source. The rule behind the calls is not given here.
# How the values were obtained:
# [1] = target: T1, Type-1 angiotensin II receptor (Homo sapiens) (UniProt P30556); experiment: Binding affinity to AT1 receptor (unknown origin)
# T1 sequence (whole entry): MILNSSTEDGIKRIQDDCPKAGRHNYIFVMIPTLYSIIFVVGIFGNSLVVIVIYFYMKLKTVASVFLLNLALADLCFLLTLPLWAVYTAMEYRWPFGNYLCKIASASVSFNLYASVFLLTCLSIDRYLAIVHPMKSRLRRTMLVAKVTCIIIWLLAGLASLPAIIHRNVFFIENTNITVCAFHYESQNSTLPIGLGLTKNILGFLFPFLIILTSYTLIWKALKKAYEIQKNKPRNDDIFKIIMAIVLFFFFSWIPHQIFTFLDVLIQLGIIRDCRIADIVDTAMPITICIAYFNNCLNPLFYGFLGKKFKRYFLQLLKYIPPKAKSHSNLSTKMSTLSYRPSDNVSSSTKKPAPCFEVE
# [2] = target: T2, Type-2 angiotensin II receptor (Homo sapiens) (UniProt P50052); experiment: Displacement of [125I]CGP-42112A from human AT2 receptor expressed in HEK293 cells at 1 uM; format: cell-based
# T2 sequence (whole entry): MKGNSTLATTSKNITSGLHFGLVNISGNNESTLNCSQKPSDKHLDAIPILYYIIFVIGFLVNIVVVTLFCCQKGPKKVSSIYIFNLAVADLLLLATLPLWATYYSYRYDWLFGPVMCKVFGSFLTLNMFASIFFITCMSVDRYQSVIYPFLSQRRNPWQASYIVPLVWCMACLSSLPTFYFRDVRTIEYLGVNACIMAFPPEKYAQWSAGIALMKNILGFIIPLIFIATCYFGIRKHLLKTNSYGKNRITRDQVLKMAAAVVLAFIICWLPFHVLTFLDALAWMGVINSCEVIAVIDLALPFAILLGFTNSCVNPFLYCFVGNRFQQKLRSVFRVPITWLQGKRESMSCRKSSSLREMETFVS
# [3] = target: T2, Type-2 angiotensin II receptor (Homo sapiens); experiment: Displacement of [125I]CGP-42112A from human AT2 receptor expressed in HEK293 cells at 10 uM; format: cell-based
# [4] = target: T3, Type-2 angiotensin II receptor (Homo sapiens, UniProt P50052); experiment: Displacement of [125I]CGP-42112A from human AT2 receptor expressed in HEK293 cells; format: cell-based
# T3 sequence (P50052 whole entry): T2 sequence (whole entry)
# [5] = target: T3, Type-2 angiotensin II receptor; experiment: Displacement of [125I]Sarile from human AT2 receptor expressed in HEK293 cells; format: cell-based
Activity [1],inhibition [2],inhibition [3],Ki [4] [µM],Ki [5] [µM],SMILES
inactive,6%,9%,,,CC[C@H](C)[C@H](NC(=O)c1cccc(Cn2ccnc2)c1)C(=O)NC#N
inactive,10%,27%,8.5,,CC[C@H](C)[C@H](NC(=O)c1cccc(Cn2ccnc2)c1)C(=O)NNS(=O)(=O)c1c(C)cc(C)cc1C
inactive,inactive,inactive,,,CC[C@H](C)[C@H](NC(=O)c1cccc(Cn2ccnc2)c1)c1nn[nH]n1
inactive,,,9.9,,CCCCS(=O)(=O)NC(=O)[C@@H](NC(=O)c1cccc(Cn2ccnc2)c1)[C@@H](C)CC
inactive,,,,47,CC[C@H](C)[C@H](NC(=O)c1cccc(Cn2ccnc2)c1)C(=O)O
inactive,4%,17%,42,,CC[C@H](C)[C@H](NC(=O)c1cccc(Cn2ccnc2)c1)C(=O)Nc1nccs1
inactive,3%,20%,9.2,,CC[C@H](C)[C@H](NC(=O)c1cccc(Cn2ccnc2)c1)C(=O)NNS(=O)(=O)c1ccc(OC)cc1
inactive,5%,24%,18,,CC[C@H](C)[C@H](NC(=O)c1cccc(Cn2ccnc2)c1)C(=O)NS(=O)(=O)c1ccccc1
inactive,6%,18%,> 100,,CC[C@H](C)[C@H](NC(=O)c1cccc(Cn2ccnc2)c1)C(=O)NNS(=O)(=O)c1ccccc1
inactive,,,> 100,,CCCCCS(=O)(=O)NNC(=O)[C@@H](NC(=O)c1cccc(Cn2ccnc2)c1)[C@@H](C)CC
inactive,inactive,4%,,,CC[C@H](C)[C@H](NC(=O)c1cccc(Cn2ccnc2)c1)C(=O)NO
inactive,inactive,3%,,,CCCCNC(=O)[C@@H](NC(=O)c1cccc(Cn2ccnc2)c1)[C@@H](C)CC
inactive,6%,14%,,,CC[C@H](C)[C@H](NC(=O)c1cccc(Cn2ccnc2)c1)C(=O)NCC(F)(F)F
inactive,,,> 100,,CCCCS(=O)(=O)NNC(=O)[C@@H](NC(=O)c1cccc(Cn2ccnc2)c1)[C@@H](C)CC
inactive,4%,20%,29,,CC[C@H](C)[C@H](NC(=O)c1cccc(Cn2ccnc2)c1)C(=O)NNS(=O)(=O)c1ccc(C)cc1
inactive,,,> 100,,CC[C@H](C)[C@H](NC(=O)c1cccc(Cn2ccnc2)c1)C(=O)NNC(=O)OC(C)(C)C
inactive,inactive,inactive,,,CC[C@H](C)[C@H](NC(=O)c1cccc(Cn2ccnc2)c1)C(N)=O
